Reference: ChEMBL document CHEMBL2203217, “Prohormone-substrate peptide sequence recognition by peptidylglycine α-amidating monooxygenase and its reflection in increased glycolate inhibitor potency” (Bioorg Med Chem Lett, 2012)

Tests used:
[1] = biological target: T1, Peptidyl-glycine alpha-amidating monooxygenase (Homo sapiens, UniProt P19021); assay: Competitive inhibition of PAM in human DMS53 cells using as(R)-Tyr-(S)-Val-Gly as substrate after 2 hrs by HPLC analysis; format: cell-based, DMS-53
T1 sequence (P19021 whole entry): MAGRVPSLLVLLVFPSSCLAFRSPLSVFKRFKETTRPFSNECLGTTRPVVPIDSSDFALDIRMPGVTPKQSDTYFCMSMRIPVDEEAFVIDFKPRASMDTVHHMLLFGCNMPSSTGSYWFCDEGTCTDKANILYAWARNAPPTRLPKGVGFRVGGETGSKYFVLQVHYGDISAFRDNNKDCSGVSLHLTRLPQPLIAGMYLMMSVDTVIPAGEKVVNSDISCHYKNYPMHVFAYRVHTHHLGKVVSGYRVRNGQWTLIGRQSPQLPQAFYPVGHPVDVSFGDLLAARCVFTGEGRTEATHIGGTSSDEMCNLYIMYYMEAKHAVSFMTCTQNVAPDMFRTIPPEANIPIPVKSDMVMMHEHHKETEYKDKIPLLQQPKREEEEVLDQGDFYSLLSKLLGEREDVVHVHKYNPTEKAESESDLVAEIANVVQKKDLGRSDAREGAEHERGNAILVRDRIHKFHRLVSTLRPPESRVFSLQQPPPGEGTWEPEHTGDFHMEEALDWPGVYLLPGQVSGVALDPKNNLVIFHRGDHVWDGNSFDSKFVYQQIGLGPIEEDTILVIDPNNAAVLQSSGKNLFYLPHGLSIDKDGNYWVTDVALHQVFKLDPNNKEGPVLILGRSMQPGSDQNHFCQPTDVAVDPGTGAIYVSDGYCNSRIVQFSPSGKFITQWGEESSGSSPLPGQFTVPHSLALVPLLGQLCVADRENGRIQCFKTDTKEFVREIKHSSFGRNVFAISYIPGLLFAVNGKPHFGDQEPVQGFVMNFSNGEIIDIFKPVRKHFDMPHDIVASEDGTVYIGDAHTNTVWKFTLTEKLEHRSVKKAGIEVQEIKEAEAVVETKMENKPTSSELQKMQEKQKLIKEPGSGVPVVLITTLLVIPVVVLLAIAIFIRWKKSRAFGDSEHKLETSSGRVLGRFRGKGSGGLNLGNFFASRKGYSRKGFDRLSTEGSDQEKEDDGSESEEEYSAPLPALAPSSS

[2] = biological target: T1, Peptidyl-glycine alpha-amidating monooxygenase; assay: Competitive inhibition of secreted PAM in human DMS53 cell culture medium using as(R)-Tyr-(S)-Val-Gly as substrate after 2 hrs by HPLC analysis; set-up: species or system DMS-53

- IC50 [1]: 370 µM
- IC50 [2]: 290 µM
SMILES: C[C@H](N)C(=O)N1CCC[C@H]1C(=O)OCC(=O)O
